According to paper PMC5384453, “A multi-functional PEGylated gold(III) compound: potent anti-cancer properties and self-assembly into nanostructures for drug co-delivery” (Chemical Science, 2016):

Assays:
[1] = test system: NCM460 cells; assay: Co-culture model of HCT116 and NCM460, Caspase-3/7 Green flow cytometry; type: cell-based, human; conditions: 24 h; for population percentage of apoptotic cells (Caspase-3/7 Green, corrected): CMF2HC-stained NCM460 in co-culture with HCT116, 2 μM
Experimental: (§1) This co-culture model treated with 1 for 24 h had 25.04 and 5.01% (Q2 and Q3 regions of Fig. S21a ^†; corrected) of HCT116 and NCM460 cells, respectively, undergoing apoptosis as determined by Caspase-3/7 Green Reagent staining and flow cytometric analysis (Fig. S21 ^†). This confirms the preferential induction of apoptosis by 1 of HCT116 cells over NCM460 cells in the co-culture model, regardless of the effect, if any, of the blue emissive CMF2HC dye.
(§2) atmosphere of 5% CO2. After reaching 80% confluency, the culture medium was
(§3) of 5% CO2 for 45 min. The solution was then removed. The stained NCM460 cells
(§4) the procedure described above.
(§5) right fore of BALB/c nude mice. When the tumor volume reached 70 mm3 after […]

[2] = test system: HCT116 cells; assay: as above; type: cell-based, human; conditions: 24 h; for population percentage of apoptotic cells (Caspase-3/7 Green, corrected): HCT116 in co-culture with CMF2HC-stained NCM460, 2 μM
Experimental: as §1, §2, §3, §4, §5

[3] = test system: HCT116 xenografts; assay: In vivo inhibition of tumor growth in nude mice bearing HCT116 xenograft; conditions: for reduction of tumor volume / reduction of tumor weight: n = 8
Excerpt: The anti-tumor experiments using mice were approved by the animal ethics committees of Jinan University and The University of Hong Kong.
Significant pulmonary hemorrhage in the alveoli and a thickening of alveolar walls were found. Also, apoptotic hepatocytes and swollen renal epithelial cells were found, leading to subsequent shrinkage of kidney tubules. […] The lower systemic toxicity of 1 can be explained by the lower accumulation of 1 in the organs of mice treated at its effective dosage, as compared to that of 3 and Au1a (Fig. S23 ^†). […] This can be attributable to the nanostructures of 1, which may lead to in vivo tumor accumulation by the EPR effect.[55] […]
atmosphere of 5% CO2. […]
as §5
every 2 days for 24 days. The control group received equal volume of PBS only.
During the treatment period, the tumor volume and body weight of the nude mice were measured per two days. The tumor volume was calculated by the equation:
Volume (mm3) = l×w2/2, where l and w were the length and width of the tumor. At the end of the treatment, the nude mice were sacrificed and the tumor weight was […]
H&E staining and immunohistochemical (IHC) analysis of mice tissues. For histological and immunohistochemical analysis, the tissues were fixed with 3.7% formaldehyde, embedded with paraffin and sectioned. Subsequently, the tissues were stained with hematoxylin and eosin for histological observation under an optical microscope (magnification: 10×). The expression of p53, Ki67, VEGFR2 and TUNEL was determined by IHC methods as reported previously. S7
Hematological analysis of nude mice bearing HCT116 xenograft. The blood samples of mice without bearing HCT116 xenograft and xenograft-bearing mice treated with 1, 3 and PBS control were collected. The plasma was obtained by centrifuging the blood sample with speed at 3000 rpm. The plasma was then subjected to hematological analysis to determine biochemical indexes of alanine aminotransferase (ALT), asparatate aminotransferase (AST), globulin (GLB), blood urea nitrogen (BUN), uric acid (UA), creatinine (CREA), lactate dehydrogenase (LDH) and creatine kinase (CK) in blood of the mice. […]

[4] = Transmission electron microscopy of nanostructures; type: physicochemical; conditions: self-assembled in PBS
Excerpt: On the other hand, the almost neutral zeta potentials of the nanostructures of 1 and 2 validated the presence of PEG pendant in the shell of the nanostructures. The identity of gold species in the core of the nanostructures was supported by the good contrast of the core in the TEM images (Fig. 1c and S3a ^†) and energy-dispersive X-ray (EDX) spectra (Fig. 1f).
The gold content in NC1 was confirmed by EDX (Fig. 1g).

[5] = Zeta potential measurement of nanostructures in PBS; type: physicochemical
Excerpt: On the other hand, the almost neutral zeta potentials of the nanostructures of 1 and 2 validated the presence of PEG pendant in the shell of the nanostructures. The identity of gold species in the core of the nanostructures was supported by the good contrast of the core in the TEM images (Fig. 1c and S3a ^†) and energy-dispersive X-ray (EDX) spectra (Fig. 1f). […]
(MIHA), human normal liver cells (L02) and human normal gliocyte cells (CHEM-5) were maintained in Dulbecco’s modified Eagle’s medium with 10 vol% fetal bovine serum, ʟ-glutamine (2 mM) and penicillin/streptomycin (100 U/mL). […]
TOF/TOF™ Analyzer using α-cyano-4-hydroxycinnamic acid with sodium trifluoroacetate as the matrix. […]
Premier quadrupole time-of-flight tandem mass spectrometer. […]
Ultra performance […]
liquid chromatography (UPLC) measurements were performed on a Waters
ACQUITY UPLC H-Class System equipped with a photodiode array for detection.
Elemental analyses were performed on the Carlo Erba 1106 elemental analyzer at the Institute of Chemistry, Chinese Academy of Sciences, Beijing, China. […]
Dynamic light scattering (DLS) and zeta potential measurements were performed

[6] = Release of hydrolyzed gold(III) porphyrin moiety in aqueous buffer solutions (dialysis, ICP-MS); type: physicochemical; conditions: for hydrolyzed product found: sodium acetate buffer pH 4, 37 °C
Experimental: The rate of the release of the gold(III) porphyrin moiety from the conjugates in aqueous buffer solutions at different pH values was determined according to the reported methodology.[24],[26],[27] Nanostructures of 1 and 2 were dissolved in PBS or sodium acetate buffer (pH 4.0) and then dialyzed against a large volume of PBS or sodium acetate buffer solution in the dark at 37 °C using a 1000 Da cut-off dialysis membrane (details are included in the ESI ^†). The quantity of the hydrolyzed gold(III) porphyrin moiety at different time points was determined by inductively coupled plasma mass spectrometry (ICP-MS; Fig. 2a). In PBS, 31% and 60% of 1 were hydrolyzed at 6 and 24 h, respectively, while only 2% and 3% of hydrolyzed product of 2 were found at 5 and 24 h, and more than 89% of 2 remained unhydrolyzed at 96 h. […] Faster release was also found upon incubation of 2 in pH 4 buffer solution compared to that in PBS, but the amount was still much smaller than that found in the study of 1. As the only difference between 1 and 2 is the chemical structure of the linkage for PEG conjugation, the faster release of the gold(III) porphyrin moiety from 1 in PBS than that from 2 should be attributed to the higher tendency of the ester bond in 1 to undergo hydrolytic cleavage than the amide bond in 2.[52] […]
Study on the release of hydrolyzed product from 1 and 2 in aqueous buffer solutions by ICP-MS. The nanostructures of gold(III) complex was dissolved in PBS solution (pH 7.4; 1 mg/mL) or sodium acetate buffer solution (pH 4.0; 1 mg/mL) and was dialyzed against 1 L of the buffer solution at 37 °C using semipermeable minidialysis tubes (molecular weight cut-off = 1,000 Da; GE Healthcare). At a predetermined time, an aliquot of solution was removed and dissolved in HNO3/HCl solution mixture (9:1, v/v; volume of aliquot: volume of acid mixture = 1:3). The solution mixture was heated at 65 °C with shaking overnight, and the gold content was determined by ICP-MS from three independent aliquots. […]

[7] = 4 mg kg^–1, intravenous injection every two days for 24 days
[8] = 2 mg kg^–1, intravenous injection every two days for 24 days

Compound: C1=Cc2nc1c(-c1ccccc1)c1ccc([n-]1)c(-c1ccccc1)c1nc(c(-c3ccccc3)c3ccc([n-]3)c2-c2ccccc2)C=C1.[Au+3].[Cl-] [Au1a, [Au(TPP)]Cl, reference compound]
- population percentage of apoptotic cells (Caspase-3/7 Green, corrected) [1]: 29.3%
- population percentage of apoptotic cells (Caspase-3/7 Green, corrected) [2]: 54.6%

Compound: COC(=O)c1ccc(C2=C3C=CC(=N3)C(c3ccccc3)=c3ccc4[n]3[Au+][n]3c(ccc32)C(c2ccccc2)=C2C=CC(=N2)C=4c2ccccc2)cc1.[Cl-] [Compound 3, [Au(TPP–COOCH3)]^+]
- reduction of tumor volume [3, 7]: 56%
- reduction of tumor weight [3, 7]: 49%

Compound: [Au(TPP–CONH–PEG5000–OCH3)]Cl [Compound 2]
- diameter of nanostructures (TEM) [4]: ~200 nm
- Zeta potential [5]: –0.7 ± 4.2 mV
- hydrolyzed (release of gold(III) porphyrin moiety) ([6]; PBS, 37 °C, 5 h): 2%
- hydrolyzed (release of gold(III) porphyrin moiety) ([6]; PBS, 37 °C, 24 h): 3%
- remained unhydrolyzed ([6]; PBS, 37 °C, 96 h): more than 89%

Compound: [Au(TPP–COO–PEG5000–OCH3)]Cl [Compound 1]
- diameter of nanostructures (TEM) [4]: ca. 120 nm
- reduction of tumor volume [3, 8]: 41%
- reduction of tumor weight [3, 8]: 35%
- reduction of tumor volume [3, 7]: 58%
- reduction of tumor weight [3, 7]: 53%
- nuclear atypia and mitosis in tumor sections (immunohistochemical analysis) ([3]; 4 mg kg^–1 i.v., 24 days): Effective elimination of nuclear atypia and mitosis were observed
- Zeta potential [5]: –0.1 ± 1.6 mV
- population percentage of apoptotic cells (Caspase-3/7 Green, corrected) [1]: 4.1%
- cells undergoing apoptosis (Caspase-3/7 Green, corrected) ([1]; co-culture with HCT116 pre-treated with CMF2HC dye, NCM460 cells): 5.01%
- population percentage of apoptotic cells (Caspase-3/7 Green, corrected) [2]: 25.3%
- cells undergoing apoptosis (Caspase-3/7 Green, corrected) ([2]; co-culture with HCT116 pre-treated with CMF2HC dye, HCT116 cells): 25.04%
- hydrolyzed (release of gold(III) porphyrin moiety) ([6]; PBS, 37 °C, 6 h): 31%
- hydrolyzed (release of gold(III) porphyrin moiety) ([6]; PBS, 37 °C, 24 h): 60%
- hydrolyzed product found ([6]; 6 h): 60%
- hydrolyzed product found ([6]; 24 h): 96%
